Activity calls are given as the source filed them.
What was measured:
[1] = target: T1, Nuclear receptor subfamily 0 group B member 1 (Homo sapiens, UniProt P51843); format: functional, cell-based;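 also: HEK293T cells transfected with SF-1 and DAX-1 plus StAR promoter luciferase reporter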
T1 sequence (P51843 whole entry): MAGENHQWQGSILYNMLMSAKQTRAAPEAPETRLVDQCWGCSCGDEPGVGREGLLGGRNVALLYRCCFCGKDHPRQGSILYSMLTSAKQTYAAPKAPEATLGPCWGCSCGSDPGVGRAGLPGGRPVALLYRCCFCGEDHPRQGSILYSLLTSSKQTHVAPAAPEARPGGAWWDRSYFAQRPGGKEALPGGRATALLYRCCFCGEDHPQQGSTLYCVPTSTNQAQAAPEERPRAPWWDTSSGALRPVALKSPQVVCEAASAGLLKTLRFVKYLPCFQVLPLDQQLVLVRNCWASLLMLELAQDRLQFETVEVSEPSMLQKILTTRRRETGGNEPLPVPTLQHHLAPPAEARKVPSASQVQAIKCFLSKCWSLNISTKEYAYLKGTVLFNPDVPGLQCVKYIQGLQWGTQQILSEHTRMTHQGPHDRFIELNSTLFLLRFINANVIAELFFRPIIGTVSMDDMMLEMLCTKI

cells [2] = format: functional, cell-based
[3] = target: T2, High affinity choline transporter 1 (Homo sapiens, UniProt Q9GZV3); assay: human choline transporter blockers, potency – cell-based, 5-point CRC, membrane potential dye, dose response (AID 504840); format: functional
T2 sequence (Q9GZV3 whole entry): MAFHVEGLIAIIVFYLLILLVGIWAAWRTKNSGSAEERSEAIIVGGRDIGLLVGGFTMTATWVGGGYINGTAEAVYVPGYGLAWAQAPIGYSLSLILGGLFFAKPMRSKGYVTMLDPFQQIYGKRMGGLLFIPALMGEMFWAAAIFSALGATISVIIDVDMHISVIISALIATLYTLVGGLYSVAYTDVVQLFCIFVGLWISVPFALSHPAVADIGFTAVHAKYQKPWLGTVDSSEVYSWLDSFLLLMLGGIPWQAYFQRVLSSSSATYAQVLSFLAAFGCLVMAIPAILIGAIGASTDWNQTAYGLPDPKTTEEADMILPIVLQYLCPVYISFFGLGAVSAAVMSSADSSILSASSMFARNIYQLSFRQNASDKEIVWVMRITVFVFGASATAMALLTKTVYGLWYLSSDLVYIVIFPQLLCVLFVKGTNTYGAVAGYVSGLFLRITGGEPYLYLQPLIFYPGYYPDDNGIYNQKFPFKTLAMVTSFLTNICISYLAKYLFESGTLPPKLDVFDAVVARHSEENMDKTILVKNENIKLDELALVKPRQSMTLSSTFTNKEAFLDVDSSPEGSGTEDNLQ

[4] = viability loss in HepG2 hepatoma cells – cell-based, ATP luminescence, cherry-pick, activator set 2, cytotoxicity control, dose response (AID 1053143); format: functional
cells [5] = format: functional, cell-based; remark: listed apart in the source
cells [6] = format: functional, cell-based; remark: listed apart in the source
[7] = target: T3, Sentrin-specific protease 8 (Homo sapiens, UniProt Q96LD8); format: functional
T3 sequence (Q96LD8 whole entry): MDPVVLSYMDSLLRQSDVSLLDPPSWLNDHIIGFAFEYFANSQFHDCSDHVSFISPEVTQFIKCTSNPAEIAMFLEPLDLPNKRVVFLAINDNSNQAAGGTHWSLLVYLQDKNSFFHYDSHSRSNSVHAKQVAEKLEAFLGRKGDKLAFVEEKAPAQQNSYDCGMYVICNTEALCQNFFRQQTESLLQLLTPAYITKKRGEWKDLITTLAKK

Protein RecA = target: T4, Protein RecA (Mycobacterium tuberculosis, UniProt P9WHJ3); assay: Fluorescence Cell-Free Homogeneous Dose Retest to Identify Inhibitors of RecA-Intein Splicing Activity. [Related pubchem assays (depositor defined):AID2097, AID2223, AID489010, AID492950]; format: functional
T4 sequence (P9WHJ3 whole entry): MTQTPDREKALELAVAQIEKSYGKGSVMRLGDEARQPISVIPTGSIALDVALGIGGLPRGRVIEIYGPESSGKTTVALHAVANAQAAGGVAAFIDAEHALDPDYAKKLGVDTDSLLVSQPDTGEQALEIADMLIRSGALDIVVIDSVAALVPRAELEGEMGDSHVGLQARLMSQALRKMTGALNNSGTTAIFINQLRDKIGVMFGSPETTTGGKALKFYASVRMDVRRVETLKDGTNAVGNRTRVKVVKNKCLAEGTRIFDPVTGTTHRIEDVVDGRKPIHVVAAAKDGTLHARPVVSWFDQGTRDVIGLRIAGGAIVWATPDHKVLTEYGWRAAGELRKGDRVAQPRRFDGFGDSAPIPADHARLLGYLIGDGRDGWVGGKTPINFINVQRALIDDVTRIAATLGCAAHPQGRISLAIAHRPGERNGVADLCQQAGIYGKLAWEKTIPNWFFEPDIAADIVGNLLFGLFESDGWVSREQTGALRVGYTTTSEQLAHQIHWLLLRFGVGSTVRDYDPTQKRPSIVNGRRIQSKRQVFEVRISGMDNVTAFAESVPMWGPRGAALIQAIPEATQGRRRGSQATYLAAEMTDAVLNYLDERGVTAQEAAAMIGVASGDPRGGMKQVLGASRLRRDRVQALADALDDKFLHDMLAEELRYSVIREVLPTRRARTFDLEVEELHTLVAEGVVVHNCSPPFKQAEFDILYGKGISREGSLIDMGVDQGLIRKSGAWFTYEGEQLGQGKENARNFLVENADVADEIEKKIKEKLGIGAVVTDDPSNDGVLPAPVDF

[8] = target: T3, Sentrin-specific protease 8; format: functional; remark: listed apart in the source
[9] = target: T5, Mannose-6-phosphate isomerase (Homo sapiens, UniProt P34949); assay: MPI inhibition at elevated mannose 6-phosphate – biochemical, fluorescence intensity, high mannose 6-phosphate, primary screen (AID 1220)
T5 sequence (P34949 whole entry): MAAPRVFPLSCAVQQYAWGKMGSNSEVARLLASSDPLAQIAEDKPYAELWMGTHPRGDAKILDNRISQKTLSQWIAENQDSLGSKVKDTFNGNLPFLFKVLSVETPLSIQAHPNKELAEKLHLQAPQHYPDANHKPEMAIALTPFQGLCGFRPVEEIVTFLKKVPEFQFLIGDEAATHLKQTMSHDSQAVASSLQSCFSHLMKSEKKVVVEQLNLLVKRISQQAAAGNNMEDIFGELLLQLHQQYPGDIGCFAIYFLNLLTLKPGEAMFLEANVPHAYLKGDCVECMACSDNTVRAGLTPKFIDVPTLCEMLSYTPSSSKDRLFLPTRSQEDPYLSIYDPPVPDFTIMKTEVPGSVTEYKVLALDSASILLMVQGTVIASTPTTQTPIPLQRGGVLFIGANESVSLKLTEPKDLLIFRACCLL

Caspase-3 = target: T6, Caspase-3 (Homo sapiens, UniProt P42574); assay: Dose-response confirmation of uHTS inhibitor hits of Sentrin-Specific Protease 8 in a Caspase-3 Fluorescence assay.; format: functional
T6 sequence (P42574 whole entry): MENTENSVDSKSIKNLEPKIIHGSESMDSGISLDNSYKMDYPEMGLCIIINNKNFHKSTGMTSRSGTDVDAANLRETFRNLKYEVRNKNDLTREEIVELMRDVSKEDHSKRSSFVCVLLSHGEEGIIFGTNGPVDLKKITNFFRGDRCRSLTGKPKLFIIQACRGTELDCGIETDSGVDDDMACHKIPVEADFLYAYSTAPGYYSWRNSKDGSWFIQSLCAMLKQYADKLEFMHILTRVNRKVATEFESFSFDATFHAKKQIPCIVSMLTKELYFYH

[10] = target: T7, Replicative DNA helicase DnaB (Mycobacterium tuberculosis, UniProt P9WMR3); assay: DnaB intein splicing inhibitors, dose response, biochemical, cell-free fluorescence (AID 449749); format: functional
T7 sequence (P9WMR3 whole entry): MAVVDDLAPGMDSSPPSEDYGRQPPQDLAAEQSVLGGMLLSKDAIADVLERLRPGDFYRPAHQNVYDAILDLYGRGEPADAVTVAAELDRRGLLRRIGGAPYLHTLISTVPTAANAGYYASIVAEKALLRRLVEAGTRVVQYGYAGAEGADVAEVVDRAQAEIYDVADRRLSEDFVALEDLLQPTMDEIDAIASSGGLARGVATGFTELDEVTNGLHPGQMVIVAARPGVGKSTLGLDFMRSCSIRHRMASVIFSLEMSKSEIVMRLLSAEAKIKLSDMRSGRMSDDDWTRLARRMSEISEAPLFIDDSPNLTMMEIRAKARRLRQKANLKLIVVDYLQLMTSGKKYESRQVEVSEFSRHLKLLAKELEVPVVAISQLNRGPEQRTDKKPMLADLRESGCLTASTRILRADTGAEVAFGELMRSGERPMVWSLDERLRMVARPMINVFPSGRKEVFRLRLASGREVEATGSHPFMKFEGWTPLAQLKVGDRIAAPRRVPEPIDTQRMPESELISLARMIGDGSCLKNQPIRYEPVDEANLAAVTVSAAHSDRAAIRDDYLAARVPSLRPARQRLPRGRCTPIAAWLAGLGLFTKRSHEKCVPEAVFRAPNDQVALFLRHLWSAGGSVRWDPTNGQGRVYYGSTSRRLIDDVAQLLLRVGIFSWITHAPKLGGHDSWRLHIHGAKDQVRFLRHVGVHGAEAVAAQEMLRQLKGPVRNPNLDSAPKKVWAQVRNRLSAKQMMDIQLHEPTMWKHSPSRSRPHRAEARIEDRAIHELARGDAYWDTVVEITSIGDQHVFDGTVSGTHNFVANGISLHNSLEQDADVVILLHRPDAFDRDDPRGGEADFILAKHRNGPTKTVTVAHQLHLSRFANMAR

[11] = HPDE-C7 pancreatic duct cell viability loss – fluorescence, HTS (AID 430); format: functional, cell-based; conditions: Homo sapiens
Galanin receptor type 3 = Galanin receptor type 3 (Homo sapiens, UniProt O60755); assay: Fluorescence-based cell-based primary high throughput dose response assay to identify antagonists of the Galanin Receptor 3 (GalR3).; format: functional
Sequence of Galanin receptor type 3 (O60755 whole entry): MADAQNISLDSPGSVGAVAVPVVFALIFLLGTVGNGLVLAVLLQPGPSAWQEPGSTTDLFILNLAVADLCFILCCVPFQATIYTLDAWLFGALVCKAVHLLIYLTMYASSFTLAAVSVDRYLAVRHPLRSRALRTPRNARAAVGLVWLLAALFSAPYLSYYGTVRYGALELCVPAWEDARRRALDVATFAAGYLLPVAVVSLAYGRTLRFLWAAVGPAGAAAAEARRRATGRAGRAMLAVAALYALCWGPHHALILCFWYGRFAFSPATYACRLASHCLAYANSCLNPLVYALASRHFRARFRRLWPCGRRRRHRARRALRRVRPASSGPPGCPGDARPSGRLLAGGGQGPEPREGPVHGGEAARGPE

[12] = viability loss of HPDE-C7K cells – cell-based, fluorescence, HTS, primary screen (AID 431); format: functional; conditions: Homo sapiens
cells [13] = format: functional, cell-based; conditions: HEK-CNG
[14] = target: 1-phosphatidylinositol 4,5-bisphosphate phosphodiesterase gamma-1 (Homo sapiens, UniProt P19174); assay: Counterscreen for inhibitors of phospholipase C isozymes (PLC-B3): Fluorescence-based biochemical high throughput dose response assay to identify inhibitors of phospholipase C isozymes (PLC-gamma1).
Sequence of 1-phosphatidylinositol 4,5-bisphosphate phosphodiesterase gamma-1 (P19174 whole entry): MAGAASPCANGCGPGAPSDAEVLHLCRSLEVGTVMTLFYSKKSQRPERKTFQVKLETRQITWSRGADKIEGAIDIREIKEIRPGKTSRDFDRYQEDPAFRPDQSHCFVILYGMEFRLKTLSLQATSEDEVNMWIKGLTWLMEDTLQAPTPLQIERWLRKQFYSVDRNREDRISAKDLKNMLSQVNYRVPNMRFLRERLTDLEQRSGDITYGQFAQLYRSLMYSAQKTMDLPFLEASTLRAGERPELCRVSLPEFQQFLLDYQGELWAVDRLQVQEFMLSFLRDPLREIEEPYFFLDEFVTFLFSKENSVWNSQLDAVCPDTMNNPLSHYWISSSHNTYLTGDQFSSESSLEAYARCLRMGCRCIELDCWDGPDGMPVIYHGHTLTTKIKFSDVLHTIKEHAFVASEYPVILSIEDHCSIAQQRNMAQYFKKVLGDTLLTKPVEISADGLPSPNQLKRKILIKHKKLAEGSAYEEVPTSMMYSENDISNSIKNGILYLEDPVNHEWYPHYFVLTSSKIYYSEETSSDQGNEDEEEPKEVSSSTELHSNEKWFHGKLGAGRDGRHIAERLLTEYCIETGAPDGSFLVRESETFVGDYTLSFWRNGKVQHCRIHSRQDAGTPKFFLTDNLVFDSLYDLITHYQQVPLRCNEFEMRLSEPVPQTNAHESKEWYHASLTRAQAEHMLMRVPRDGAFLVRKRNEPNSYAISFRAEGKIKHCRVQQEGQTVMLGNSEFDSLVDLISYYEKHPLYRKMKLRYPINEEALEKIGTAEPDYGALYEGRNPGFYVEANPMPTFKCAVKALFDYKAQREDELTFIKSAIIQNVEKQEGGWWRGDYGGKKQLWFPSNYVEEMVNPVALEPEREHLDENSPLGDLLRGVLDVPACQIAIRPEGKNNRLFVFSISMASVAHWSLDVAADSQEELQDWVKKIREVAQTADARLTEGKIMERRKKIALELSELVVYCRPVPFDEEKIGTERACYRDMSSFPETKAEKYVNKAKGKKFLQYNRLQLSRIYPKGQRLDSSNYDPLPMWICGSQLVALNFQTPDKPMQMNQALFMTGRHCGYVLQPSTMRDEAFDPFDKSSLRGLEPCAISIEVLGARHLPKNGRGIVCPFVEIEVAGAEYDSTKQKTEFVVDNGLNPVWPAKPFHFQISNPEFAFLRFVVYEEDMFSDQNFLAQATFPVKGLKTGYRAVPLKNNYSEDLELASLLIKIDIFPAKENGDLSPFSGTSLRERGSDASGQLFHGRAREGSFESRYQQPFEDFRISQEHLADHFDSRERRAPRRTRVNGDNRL

[15] = target: 1-phosphatidylinositol 4,5-bisphosphate phosphodiesterase beta-3 (Homo sapiens, UniProt Q01970); assay: Fluorescence-based biochemical high throughput dose response assay to identify inhibitors of phospholipase C isozymes (PLC-B3).
Sequence of 1-phosphatidylinositol 4,5-bisphosphate phosphodiesterase beta-3 (Q01970 whole entry): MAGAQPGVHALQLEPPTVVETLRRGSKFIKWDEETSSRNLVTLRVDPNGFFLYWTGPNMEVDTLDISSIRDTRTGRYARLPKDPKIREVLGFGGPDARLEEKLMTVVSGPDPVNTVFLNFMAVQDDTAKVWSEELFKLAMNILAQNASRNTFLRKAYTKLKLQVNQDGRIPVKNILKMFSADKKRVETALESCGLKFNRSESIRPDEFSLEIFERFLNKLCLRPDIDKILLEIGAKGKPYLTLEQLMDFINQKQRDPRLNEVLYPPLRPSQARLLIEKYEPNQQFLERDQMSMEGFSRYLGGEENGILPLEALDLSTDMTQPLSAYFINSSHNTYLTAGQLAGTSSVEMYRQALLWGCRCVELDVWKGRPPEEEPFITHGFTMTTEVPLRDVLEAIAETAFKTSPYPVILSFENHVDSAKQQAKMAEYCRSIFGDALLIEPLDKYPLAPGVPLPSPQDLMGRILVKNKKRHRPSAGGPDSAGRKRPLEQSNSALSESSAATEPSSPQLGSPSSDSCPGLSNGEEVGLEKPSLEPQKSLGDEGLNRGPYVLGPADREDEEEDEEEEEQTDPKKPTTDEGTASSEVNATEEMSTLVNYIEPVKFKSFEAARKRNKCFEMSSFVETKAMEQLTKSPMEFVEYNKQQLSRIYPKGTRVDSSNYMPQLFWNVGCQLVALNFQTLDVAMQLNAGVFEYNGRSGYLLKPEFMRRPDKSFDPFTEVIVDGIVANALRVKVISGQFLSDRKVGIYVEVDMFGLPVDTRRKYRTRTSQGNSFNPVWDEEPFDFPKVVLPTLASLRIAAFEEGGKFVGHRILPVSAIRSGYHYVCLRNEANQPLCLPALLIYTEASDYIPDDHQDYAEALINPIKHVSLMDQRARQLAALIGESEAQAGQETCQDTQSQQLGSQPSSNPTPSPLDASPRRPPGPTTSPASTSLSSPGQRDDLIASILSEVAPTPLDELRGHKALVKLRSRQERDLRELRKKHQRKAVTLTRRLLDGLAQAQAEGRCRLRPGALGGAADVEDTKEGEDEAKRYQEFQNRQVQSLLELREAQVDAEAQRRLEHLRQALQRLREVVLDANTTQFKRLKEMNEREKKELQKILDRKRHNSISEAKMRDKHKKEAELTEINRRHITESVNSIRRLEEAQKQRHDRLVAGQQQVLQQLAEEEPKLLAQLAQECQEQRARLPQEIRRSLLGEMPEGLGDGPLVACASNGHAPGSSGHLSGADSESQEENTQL

[16] = general cell-killing toxicity readout – plate reader, dry powder samples, cytotoxicity control for PAX8 inhibitor project, dose response (AID 743021); format: functional, cell-based
Paired box protein Pax-8 = Paired box protein Pax-8 (Homo sapiens, UniProt Q06710); assay: PAX8 transcriptional activity inhibition in RMG-I – RMG-I cells, luciferase, cherry-pick, dose response (AID 687027); format: functional, cell-based;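 also: luciferase reporter driven by Pax8 target thyroperoxidase promoter measured by SteadyGlo luminescence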
Sequence of Paired box protein Pax-8 (Q06710 whole entry, the tested form may be a part): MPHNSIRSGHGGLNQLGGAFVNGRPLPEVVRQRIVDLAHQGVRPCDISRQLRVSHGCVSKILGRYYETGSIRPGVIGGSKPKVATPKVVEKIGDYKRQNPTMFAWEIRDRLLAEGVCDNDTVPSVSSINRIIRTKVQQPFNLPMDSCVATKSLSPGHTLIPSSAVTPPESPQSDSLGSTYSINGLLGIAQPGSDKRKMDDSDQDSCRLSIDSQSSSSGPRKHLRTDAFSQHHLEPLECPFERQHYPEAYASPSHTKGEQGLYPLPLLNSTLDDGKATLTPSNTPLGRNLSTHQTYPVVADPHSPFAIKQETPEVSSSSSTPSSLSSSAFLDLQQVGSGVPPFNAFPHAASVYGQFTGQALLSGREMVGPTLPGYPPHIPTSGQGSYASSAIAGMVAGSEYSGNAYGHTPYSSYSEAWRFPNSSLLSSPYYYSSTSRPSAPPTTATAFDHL

[17] = target: Disintegrin and metalloproteinase domain-containing protein 17 (Homo sapiens, UniProt P78536); assay: exosite inhibitors of ADAM17, dose response, biochemical (AID 743260)
Sequence of Disintegrin and metalloproteinase domain-containing protein 17 (P78536 whole entry, the tested form may be a part): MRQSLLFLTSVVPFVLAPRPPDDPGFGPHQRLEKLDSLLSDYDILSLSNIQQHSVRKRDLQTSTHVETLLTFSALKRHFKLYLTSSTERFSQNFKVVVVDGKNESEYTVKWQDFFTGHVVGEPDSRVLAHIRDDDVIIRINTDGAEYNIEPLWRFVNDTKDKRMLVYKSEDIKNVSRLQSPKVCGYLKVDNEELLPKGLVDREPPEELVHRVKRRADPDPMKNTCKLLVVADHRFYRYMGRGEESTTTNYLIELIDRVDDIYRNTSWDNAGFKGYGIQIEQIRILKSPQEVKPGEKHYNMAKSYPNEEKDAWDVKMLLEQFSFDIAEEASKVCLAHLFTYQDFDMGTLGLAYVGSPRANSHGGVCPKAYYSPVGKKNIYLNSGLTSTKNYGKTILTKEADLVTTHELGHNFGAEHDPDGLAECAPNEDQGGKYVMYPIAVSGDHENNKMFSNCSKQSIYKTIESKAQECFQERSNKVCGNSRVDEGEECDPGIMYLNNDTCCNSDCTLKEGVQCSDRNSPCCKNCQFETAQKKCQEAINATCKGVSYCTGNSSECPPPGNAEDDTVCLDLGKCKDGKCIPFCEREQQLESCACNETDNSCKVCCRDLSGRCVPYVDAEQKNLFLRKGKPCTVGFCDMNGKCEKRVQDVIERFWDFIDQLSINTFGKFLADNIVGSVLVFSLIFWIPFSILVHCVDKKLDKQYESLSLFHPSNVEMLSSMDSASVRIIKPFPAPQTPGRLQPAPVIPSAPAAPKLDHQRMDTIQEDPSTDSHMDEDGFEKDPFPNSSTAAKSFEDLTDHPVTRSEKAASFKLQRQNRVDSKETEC

[18] = inhibition of ADAM10 peptide cleavage – biochemical, FRET peptide substrate, recombinant human ADAM10, selectivity assay for ADAM17 exosite inhibitor project, dose response (AID 743259);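 also: ADAM10 enzyme cleaving a FRET peptide substrate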
[19] = T. cruzi growth inhibition in host cells, dose response, cell-based, plate reader, dry powder, set 2 (AID 652275); format: functional
[20] = MITF: Counter assay: A375 proliferation Measured in Cell-Based System Using Plate Reader - 2084-03_Inhibitor_Dose_DryPowder_Activity_Set8.; format: functional; conditions: A-375
[21] = inhibitors of TRPM1-promoter reporter in SK-MEL-5 – cell-based, luciferase, dry powder, set 8, MITF inhibitor project, dose response (AID 624430); format: functional
[22] = MITF Orthogonal Assay: SK-MEL-5 CTG Assay Measured in Cell-Based System Using Plate Reader - 2084-02_Inhibitor_Dose_DryPowder_Activity_Set7.; format: functional

COc1ccccc1Nc1nnc(SCC2CCCCO2)s1 (configuration not stated)
IC50 [1]: > 0.834 µM (active)
IC50 (cells [2]): > 67.5 µM (inactive)
IC50 [3]: 4.17 µM (active)

O=C(Nc1nnc(SCc2ccccc2F)s1)C1=COCCO1
IC50 [1]: > 67.6 µM (inactive)
IC50 (cells [2]): > 67.6 µM (inactive)

COc1ccc2nc(NC(=O)c3cccs3)sc2c1
AC50 [4]: 26 µM (active)
EC50 (cells [5]): > 350 µM (not active)
EC50 (cells [6]): 7.18 µM (active)

NC(=O)c1ccc(NC(=O)C#Cc2ccccc2)cc1
AC50 [4]: 26 µM (active)

CCOC(=O)c1nn(-c2ccccc2C)c(=O)c2c(N)scc12
IC50 [7]: 4.12 µM (active)
EC50 (Protein RecA): 11.4 µM (active)
IC50 [8]: 17.3 µM (active)
IC50 [9]: > 50 µM (not active)
IC50 (Caspase-3): 93.3 µM (inactive)
AC50 [10]: > 120 µM (inactive)

CCn1c2ccccc2c2cc(C3C(C#N)=C(N)Oc4[nH]nc(COC)c43)ccc21 (configuration not stated)
EC50 [11]: 7.03 µM (active)
IC50 (Galanin receptor type 3): > 29.9 µM (inactive)
EC50 (Protein RecA): 2.7 µM (active)
EC50 [12]: 7.72 µM (active)
EC50 (cells [13]): > 29.9 µM (inactive)
AC50 [10]: > 380 µM (inconclusive)

Fc1ccc(-c2cc(-c3cccs3)cc(-c3ccccc3)n2)cc1
IC50 [14]: > 123 µM (inactive)
IC50 [15]: > 123 µM (inactive)

COc1ccc(-c2cc(CNc3nc(NC(C)C)nc4cc(-c5ccccc5)sc34)on2)cc1
AC50 [16]: 18.8 µM (active)
AC50 (Paired box protein Pax-8): 9.84 µM (active)

CC(C)c1cccc(-c2csc(C(O)c3cccc(Cl)c3)n2)c1 (configuration not stated)
IC50 [17]: > 69.5 µM (inactive)
IC50 [18]: 42.8 µM (inactive)

COc1cccc(C(Nc2ccccc2)c2ccc3ccc(C)nc3c2O)c1 (configuration not stated)
IC50 [17]: > 69.2 µM (inactive)
IC50 [18]: 18.5 µM (inactive)

CC(C)N1CC2(CN(Cc3cccc(F)c3)C2)Oc2c(NC(=O)c3ccncc3)cccc2C1=O
AC50 [19]: 410 nM (active)

CC(C)N1CCN(C2=C(Nc3ccc(I)cc3)C(=O)c3ccccc3C2=O)CC1
AC50 [20]: 33.9 µM (active)
AC50 [21]: 2.96 µM (active)
AC50 [22]: 10.8 µM (active)

CC(C)N1CCN(C2=C(Nc3ccc(Cl)c(Cl)c3)C(=O)c3ccccc3C2=O)CC1
AC50 [20]: 19.4 µM (active)
AC50 [21]: 3.21 µM (active)
AC50 [22]: 8.71 µM (active)

CN(C)C(=O)c1cccc(-c2ccc([C@H]3[C@@H](CO)N4CCCCN(C(=O)C5CCC5)C[C@H]34)cc2)c1
AC50 [19]: 1290 nM (active)

Source: ChEMBL document CHEMBL1201862, “PubChem BioAssay data set” (2004)
